Results taken from patent US4826838A, “Analgesic carbocyclic and heterocyclic carbonylmethylene-and carbonylmethypipidines and-pyrrolidines” (Sandoz Ltd., priority 1985, dated 1989).

How the values were obtained:
[1] = tested on: behavioral activity; experiment: Studies A to D taken together (ethological and endocrinological tests); format: in vivo, mouse
Procedure: Male intruder mice show only low levels of social activity and high levels of defensive activity when introduced into the home cage of an individually housed adult male. Benzodiazepines and related drugs increase approaxh activities in this situation (Dixon 1982, Triangle 21: 95-105 (1982) Krsiak. M. Br. J. Pharmacol. 55: 141-150 (1975)). Compounds of formula I, in oral doses of 0.1 to 1 mg/kg increase approach oriented social activity.
Stretched attend postures in mice signify an ambivalent form of conflict which is inhibited by putative anxiolytics (Kaeserman HP Psychopharmacology (1986) 89: 31-37). Compounds of formula I, when given 2 hours before, reduce the duration of stretched attend postures to mice placed on a novel elevated platform.
Compounds of formula I reduce such stress-induced corticosterone at 1 mg/kg p.o. whilst doses from 0.1 to 0.3 increase plasma levels of this hormone.

[2] = tested on: 5-HT3 receptors; conditions: isolated rabbit vagus nerve; cited from earlier work
[3] = tested on: migraine attack; conditions: slow i.v. injection of 10 mg; cited from earlier work
[4] = tested on: 5-HT3 receptor; conditions: cantharidine blister base; cited from earlier work

CN1C2CCC1CC(=CC(=O)c1c[nH]c3ccccc13)C2 (single isomer, unassigned; (+)) [compound F, (+)-Indol-3-yl-carbonyl-methylenyl-3-(8-methyl-8-azabicyclo[3.2.1]octane)]
relative activity among the compounds of formula I [1]: most active

CN1C2CCC1CC(=CC(=O)c1c[nH]c3ccccc13)C2 (single isomer, unassigned; (-)) [compound G, (-)-Indol-3-yl-carbonyl-methylenyl-3-(8-methyl-8-azabicyclo[3.2.1]octane)]
relative activity among the compounds of formula I [1]: most active

CCN(CC)C(=O)[C@@H]1C=C2c3cccc4[nH]c(Br)c(c34)C[C@H]2N(C)C1 [BOL -148]
blockade of the action of serotonin on the C fibre action potential [2]: not blocked

CCN(CC)CCNC(=O)c1cc(Cl)c(N)cc1OC [Metoclopramide]
effect on a migraine attack [3]: immediate beneficial effect

CN1C2CCC1CC(=CC(=O)c1c[nH]c3ccccc13)C2 [compound E, Indol-3-yl-carbonyl-methylenyl-3-(8-methyl-8-azabicyclo[3.2.1]octane)]
relative activity among the compounds of formula I [1]: most active

CCN(CC)C(=O)[C@@H]1C=C2c3cccc4[nH]c(Br)c(c34)C[C@H]2N(C)C1 [its bromo derivative]
inhibition of the algesic action of serotonin [4]: not inhibited

CCN(CC)C(=O)[C@@H]1C=C2c3cccc4[nH]cc(c34)C[C@H]2N(C)C1 [lysergic acid diethylamide]
inhibition of the algesic action of serotonin [4]: not inhibited

CC[C@@H](CO)NC(=O)[C@@H]1C=C2c3cccc4c3c(cn4C)C[C@H]2N(C)C1 [methysergide]
blockade of the action of serotonin on the C fibre action potential [2]: not blocked

CSc1ccc2c(c1)C(N1CCN(C)CC1)Cc1ccccc1S2 (stereo not drawn) [metitepine]
blockade of the action of serotonin on the C fibre action potential [2]: not blocked
